The results in this text go back to publication PMC8246084, “Mapping the binding site topology of amyloid protein aggregates using multivalent ligands” (Chemical Science, 2021).

Each structure is given as a SMILES string. Like-named read-outs stand apart in the source and are kept apart here.

The target of one data set is T1, Aβ42 fibrils (Homo sapiens, UniProt P05067).
T1 construct: monomeric amyloid-b1-42; purchased Stratech A-1167-2-RPE
Description: Fluorescence titration with Aβ42 fibrils. Conditions: monodisperse BTA dimers; 0.5 μM Aβ42; PBS 1× pH 7.4, 298 K; errors at 95% confidence limit; read-out: Dissociation constant (Kd) for binding to Aβ42 fibrils.

Another data set addresses T2, tau fibrils (htau 0N4R) (Homo sapiens, UniProt P10636).
T2 construct: purchased InVivo BioTech Services GmbH, Germany
Description: Fluorescence titration with tau fibrils. To be noted: monodisperse BTA dimers; 0.5 μM tau; PBS 1× pH 7.4, 298 K; errors at 95% confidence limit; read-out: Dissociation constant (Kd) for binding to tau fibrils.

A further data set concerns the target α-synuclein fibrils (Homo sapiens, UniProt P37840). Description: Fluorescence titration with α-synuclein fibrils. The format is binding.
Data set [1] concerns 4G8-positive extracellular plaques (Aβ). Description: Staining of brain sections from patients with Alzheimer's disease (Aβ). Details: species or system human. Conditions: compound 1 μM. The text has this:
(§1) Brain sections from patients with Parkinson's disease were labelled with antibodies against α-synuclein (LB509 and pS129) and stained with compounds 13, 14 and 15 (Fig. 8a). LB509/pS129-positive Lewy bodies, that were identified as cytoplasmic spheres, were stained by both compounds 14 and 15 but not by compound 13. […] To assess any potential cross-reactivity with other pathological amyloid aggregates, such as Aβ plaques and neurofibrillary tangles of tau, brain sections from patients with Alzheimer's disease were labelled with antibody against tau (dako tau) and Aβ (4G8) and stained with compounds 13, 14 and 15 (Fig. 8b).
(§2) Fig. 8 Fluorescence microscope images of human brain sections. (a) Sections from patients with Parkinson's disease labelled with antibodies against α-synuclein (LB509 and pS129) and stained with compounds 13, 14 and 15 (100 nM). (b) Sections from patients with Alzheimer's disease labelled with antibodies against tau (dako tau) and Aβ (4G8) and stained with compounds 13, 14 and 15 (1 μM). Scale bar 20 μm.
(§3) Frozen brain tissues from neuropathologically confirmed cases of PD and AD were obtained from the Cambridge Brain Bank (Table S3). Tissue blocks were post-fixed in 4% paraformaldehyde and cryoprotected before snap freezing in OCT. Brain sections (15 μm) were generated using a cryostat (Bright OTF5000) for immunohistochemistry and compound staining.
(§4) Table S3. Details of human tissue used (SN substantia nigra, FL frontal lobe) Case no Diagnosis Braak Stage Brain region Age
(§5) 9. Immunohistochemistry and Staining […]
(§6) A11011, ThermoFisher) for PD sections or a mixture of goat anti-mouse ALEXA-647 (1:1000, A21235, ThermoFisher) and goat anti-rabbit ALEXA-546 (1:1000, A11035, ThermoFisher) for AD sections. […] Fluorescence images were taken using a Leica DMI4000B.

Data set [2] addresses α-synuclein sonicated fibrils (Homo sapiens, UniProt P37840). The experiment in a line: TIRFM imaging of α-synuclein aggregates in vitro. Conditions: nanomolar 15 (4 nM, 200 nM) vs 5 μM ThT; fibrils from 200 nM monomer. From the text: The highest affinity BTA dimers were investigated as fluorescence imaging agents for protein aggregates. Fig. 7 compares in vitro imaging of α-synuclein aggregates with 15 and with thioflavin T (ThT). ThT is widely used to image aggregates, because it has a very low fluorescence emission intensity in the free state, and there is a large increase in fluorescence emission on binding to protein aggregates. The corresponding change in fluorescence emission intensity is much lower for the BTA dimers described here (see Fig. 3).
Fig. 7 TIRFM images of α-synuclein sonicated fibrils in the presence of (a) 4 nM 15, (b) 200 nM 15 and (c) 5 μM ThT. Fibrils were obtained from 200 nM samples of the monomer. All images have the same contrast. Scale bar 10 μm.
7. Total internal reflection fluorescence microscopy (TIRFM) imaging
Imaging was performed using a homebuilt total internal reflection fluorescence microscope as reported previously.7 Briefly, this imaging mode restricts detectable axial fluorescence signal to within ~200 nm from the glass-water interface. […] Fluorescence was collected by the same objective and was separated from the returning TIR beam by a dichroic (Di01-R405/488/561/635, Semrock), and passed through […]
respectively). The images were recorded on an EMCCD camera (Evolve 512, Photometrics) operating in frame transfer mode (EMGain of 11.5 e−/ADU and 250 ADU/photon). […]

The target of data set [3] is T3, α-synuclein aggregates (LB509/pS129-positive Lewy bodies) (Homo sapiens, UniProt P37840).
T3 construct: tissue Cambridge Brain Bank; host or cells: post-mortem human brain sections, Parkinson's disease, substantia nigra
Description: Staining of brain sections from patients with Parkinson's disease. Conditions: compound 100 nM.
Description: as §1, §2, §3, §4
9. Immunohistochemistry and Staining
Fixed brain sections were washed with 70% EtOH and allowed to air dry for 20 min before incubation overnight at 4°C with either a mixture of monoclonal antibodies for α-syn (1:500, ab27766, Abcam) and pS129 α-syn (1:500, ab51253, Abcam) for PD sections or a mixture of monoclonal antibody for Aβ (1:500, 800701, Biolegend) and polyclonal antibody for human tau (1:500, A002401-2, Agilent) for AD sections. Sections were washed with PBS 3 x 15 min and incubated for 3 h at room temperature in secondary antibody, either a mixture of goat anti- […]
A11011, ThermoFisher) for PD sections or a mixture of goat anti-mouse ALEXA-647 (1:1000, A21235, ThermoFisher) and goat anti-rabbit ALEXA-546 (1:1000, A11035, ThermoFisher) for AD sections. Compounds 13, 14 and 15 were also diluted in the secondary antibody preparation at stated concentrations. Sections were washed with PBS 3 x 10 min and once with 70% EtOH 5 min before blocking autofluorescence with Autofluorescence Inhibitor (2160, Millipore) for 5 min. After 3 x 1 min washes in 70% EtOH sections were mounted using Fluorosave mounting medium (345789, Millipore). Fluorescence images were taken using a Leica DMI4000B.

Data set [4] concerns the target Tau-positive neuronal inclusions (Homo sapiens, UniProt P10636). Description: Staining of brain sections from patients with Alzheimer's disease (tau). Conditions: compound 1 μM.
Description: as §1, §2, §3, §4, §5, §6

Data set [5] can be described thus: Solubility for fluorescence titrations in PBS. It is filed as physicochemical. To be noted: PBS 1× titration conditions. The text has this:
Eqn (1)–(3) can be fit to the two sets of titration data in Fig. 3 to determine the dissociation constant Kd and brightness (ef) of the free and bound BTA dimer, and in the case of high affinity binding, the concentration of binding sites on the protein fibrils. In all cases, the titration data fit well to a 1 : 1 binding isotherm, and the lines shown in Fig. 3 are the calculated lines of best fit.
Fluorescent titrations with the polydisperse mixtures of BTA dimers were used to measure the apparent binding affinities for α-synuclein fibrils in the same way as described above for the monodisperse BTA dimers. The titration data fit well to a 1 : 1 binding isotherm allowing for the fluorescence emission from the free dye as described above, and the results are summarised in Table 2. […] The dissociation constants for the other polydisperse BTA dimers are in the same range as those measured for the monodisperse analogues. […]
5. Fluorescence titrations […]
The fluorescence spectra were analysed using a Microsoft Excel spreadsheet to fit the changes in fluorescence intensity at fixed wavelengths to a 1:1 binding isotherm by optimizing the association constant, the optical brightness of the free and bound guest, and the concentration of protein binding sites using purpose written VBA macros. […]
Figure S25. Fluorescence titration of compound 14. […]
Figure S26. Fluorescence titration of compound 15. […]

[6] abbreviates: monodisperse BTA dimers, 1 μM α-synuclein, PBS 1× pH 7.4, 298 K, errors at 95% confidence limit, read-out: Dissociation constant (Kd) for binding to α-synuclein fibrils.

The Kd is a measure of binding affinity in units of concentration.

T2 sequence (P10636 1-383 isoform P10636-6): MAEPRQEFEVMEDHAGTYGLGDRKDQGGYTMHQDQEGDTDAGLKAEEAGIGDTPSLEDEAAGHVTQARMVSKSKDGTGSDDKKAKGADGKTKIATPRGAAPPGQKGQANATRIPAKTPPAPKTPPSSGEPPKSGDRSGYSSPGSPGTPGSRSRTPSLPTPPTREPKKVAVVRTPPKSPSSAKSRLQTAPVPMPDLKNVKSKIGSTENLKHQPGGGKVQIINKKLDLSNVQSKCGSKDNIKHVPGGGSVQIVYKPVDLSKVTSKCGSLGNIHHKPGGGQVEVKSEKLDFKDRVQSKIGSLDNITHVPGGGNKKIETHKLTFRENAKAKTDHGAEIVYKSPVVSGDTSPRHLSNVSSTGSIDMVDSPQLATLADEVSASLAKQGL
T1 sequence (P05067 672-713 limits assumed): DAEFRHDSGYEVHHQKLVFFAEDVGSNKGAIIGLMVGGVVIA
Tau-positive neuronal inclusions, sequence (P10636 623-708 limits assumed): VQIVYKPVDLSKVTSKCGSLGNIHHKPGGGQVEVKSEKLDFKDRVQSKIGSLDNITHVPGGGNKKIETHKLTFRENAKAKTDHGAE

Turning to `CN(C)c1ccc(-c2nc3ccc(OCCOCCOCCOCCOCCOCCOCCOCCOCCOCCOCCOCCOCCOCCOCCOCCOCCOCCOCCOCCOCCOc4ccc5nc(-c6ccc(N(C)C)cc6)sc5c4)cc3s2)cc1` [Compound 17], the Kd at Aβ42 fibrils came out at 320 ± 75 nM; at tau fibrils (htau 0N4R), 280 ± 48 nM; at α-synuclein fibrils (setting [6]) it was 210 ± 180 nM.

On to `CN(C)c1ccc(-c2nc3ccc(OCCOCCOCCOCCOCCOCCOCCOCCOCCOc4ccc5nc(-c6ccc(N(C)C)cc6)sc5c4)cc3s2)cc1` [Compound 15], for which the Kd at Aβ42 fibrils was found to be 78 ± 26 nM; at tau fibrils (htau 0N4R), 1000 ± 300 nM; on α-synuclein fibrils (setting [6]) it was 2.7 ± 1.5 nM. Also, in data set [1], the “Staining of 4G8-positive extracellular plaques” value was “no staining”. For the same compound, the “Image brightness compared with ThT” value in data set [2] is reported as “brighter”. For the same compound, in data set [3], the “Staining of LB509/pS129-positive Lewy bodies” value is listed as “stained”. Further, the “Staining of tau-positive neuronal inclusions” value in data set [4] is on record as “no staining”.

Take `CN(C)c1ccc(-c2nc3ccc(OCCOCCOCCOCCOCCOCCOCCOCCOCCOCCOCCOCCOCCOCCOCCOc4ccc5nc(-c6ccc(N(C)C)cc6)sc5c4)cc3s2)cc1` [Compound 16]: the dissociation constant (Kd) on Aβ42 fibrils worked out at 7 ± 5 nM; on tau fibrils (htau 0N4R) it was 110 ± 57 nM; at α-synuclein fibrils (setting [6]), 35 ± 15 nM.

In the case of `CN(C)c1ccc(-c2nc3ccc(OCCOCCOCCOCCOCCOCCOc4ccc5nc(-c6ccc(N(C)C)cc6)sc5c4)cc3s2)cc1` [Compound 14], the Kd at Aβ42 fibrils turned out to be 1400 ± 1600 nM; at tau fibrils (htau 0N4R) it was 900 ± 700 nM; at α-synuclein fibrils (setting [6]), 190 ± 140 nM. Further, the “Staining of 4G8-positive extracellular plaques” value in data set [1] is on record as “no staining”. Further, the “Co-localisation with α-synuclein antibodies elsewhere in the brain section” value in data set [3] is on record as “significant amounts of co-localisation”. Also, in data set [3], the “Staining of LB509/pS129-positive Lewy bodies” value is “stained”. In addition, the “Staining of tau-positive neuronal inclusions” value in data set [4] is listed as “no staining”.

Take `COCCOCCOCCOc1ccc2nc(-c3ccc(N(C)C)cc3)sc2c1` [monomeric BTA analogue]: the Kd at α-synuclein fibrils (monomeric BTA analogue, fluorescence titration, read-out: Kd for α-synuclein (binding affinity too low to measure)) was greater than 1000 nM.

In the case of `CN(C)c1ccc(-c2nc3ccc(OCCOCCOCCOc4ccc5nc(-c6ccc(N(C)C)cc6)sc5c4)cc3s2)cc1` [Compound 13], the “Solubility (sufficient to determine accurate dissociation constants)” value in data set [5] is “not sufficiently soluble”. For the same compound, the “Staining of 4G8-positive extracellular plaques” value in data set [1] was “no staining”. The “Staining of LB509/pS129-positive Lewy bodies” value in data set [3] is recorded as “not”. In addition, in data set [4], the “Staining of tau-positive neuronal inclusions” value is reported as “no staining”.
